Data taken from patent publication US9783527B2, “Indazole ureas and method of use” (AbbVie Inc., priority 2014, dated 2017).

Experiments:
[1] = system: MIA-induced osteoarthritic pain in rats; assay: Osteoarthritic (OA) pain induced by sodium monoiodoacetate (MIA), hind limb grip force; format: in vivo, rat; details: male Sprague Dawley rats, grip force 20 days after MIA injection
Experimental: Osteoarthritic (OA) Pain Induced by Sodium Monoiodoacetate (MIA)
Pain behavior was assessed by measurement of hind limb grip force (GF) in adult osteoarthritic rats. Male Sprague Dawley rats, obtained from Charles River Laboratories, (Wilmington, Mass.), weighing 150-175 g, were injected in the unilateral knee join with a single intra-articular injection of sodium monoiodoacetate (MIA, 3 mg/rat). All rats were tested at 20 days following MIA injection. A behavioral measure of activity-induced pain was carried out. Measurements of the peak hind limb grip force were conducted by recording the maximum compressive force (CFmax), in grams of force, exerted on a hind limb strain gauge setup, in a commercially available grip force measurement system (Columbus Instruments, Columbus, Ohio).
During testing, each rat was gently restrained by grasping it around its rib cage and then allowed to grasp the wire mesh frame attached to the strain gauge. The experimenter then moved the animal in a rostral-to-caudal direction until the grip was broken. Each rat was sequentially tested twice at an approximately 2-3 minute interval to obtain a raw mean grip force (CFmax). This raw mean grip force data was in turn converted to a maximum hindlimb cumulative compressive force (CFmax), as the grams of force/kg of body weight, for each animal.
For evaluating the compound effects, the hind limb grip force was conducted 20 days following the intra-articular injection of MIA. A group of age-matched nave (not injected with MIA) animals was added as a comparator to the drug-dosed groups. The vehicle control response for each group of MIA-treated animals was defined as the 0% response (0% effect), whereas the nave control group was defined as the normal response and as 100% effect. The % effect for each dose group was expressed as % return of response to normalcy, compared to the nave group. A percent maximal possible effect (% MPE) of testing compound was calculated according to the formula: (Treatment CFmax−Vehicle CFmax)/Vehicle CFmax]×100). Higher % effect numbers indicate increased relief from the pain in the model, with 100% indicating a return to the level of response seen in normal (non-osteoarthritic) animals. All experiments evaluating drug effects in this model were conducted in a randomized blinded fashion.
The animals were housed in Association for Assessment and Accreditation of Laboratory Animal Care (AAALAC) approved facilities at AbbVie Inc. in a temperature-regulated environment under a controlled 12-hour light-dark cycle, with lights on at 6:00 a.m. Food and water were available ad libitum at all times except during testing. All testing was done following procedures outlined in protocols approved by AbbVie Inc.'s Institutional Animal Care and Use Committee.

[2] = system: spinal nerve ligation-induced neuropathic pain in rats; assay: Rat spinal nerve ligation (SNL) model of neuropathic pain, von Frey paw withdrawal threshold; format: in vivo; details: SNL dose 100 mg/kg; male Sprague Dawley rats, mechanical sensitivity (von Frey)
Text: Rat Spinal Nerve Ligation (SNL) Model of Neuropathic Pain.
A model of spinal nerve ligation-induced (SNL model) neuropathic pain as originally described by Kim and Chung (Kim, S. H. and J. M. Chung, 1992, Pain 50, 355) was used to test a compound of the present application. The male Sprague Dawley rats (Charles River Laboratories, Wilmington, Mass.), weighing 150-175 g at the time of surgery, were placed under isoflurane anesthesia and a 1.5 cm incision was made dorsal to the lumbosacral plexus. The paraspinal muscles (left side) were separated from the spinous processes, the left L5 and L6 spinal nerves isolated, and tightly ligated with 5-0 silk suture distal to the dorsal root ganglion. Care was taken to avoid ligating the L4 spinal nerve. Following spinal nerve ligation, a minimum of 7 days of recovery and no more than 3 weeks was allowed prior to the behavioral testing (mechanical sensitivity). Only rats with threshold scores ≦4.5 g were considered allodynic and utilized in pharmacological experiments.
Mechanical sensitivity was measured using calibrated von Frey filaments (Stoelting, Wood Dale, Ill.). Paw withdrawal threshold (PWT) was determined by using the Dixon's up-down method (Dixon, W. J., 1980, Ann. Rev. Pharmacol. Toxicol., 20, 441). Rats were placed into inverted individual plastic containers (20×12.5×20 cm) on top of a suspended wire mesh with a 1 cm^2 grid to provide access to the ventral side of the hind paws, and acclimated to the test chambers for 20 minutes. The von Frey filaments were presented perpendicularly to the plantar surface of the selected hind paw, and then held in this position for approximately 8 seconds with enough force to cause a slight bend in the filament. Positive responses included an abrupt withdrawal of the hind paw from the stimulus, or flinching behavior immediately following removal of the stimulus. A 50% withdrawal threshold was determined using an up-down procedure (Dixon, 1980). A percent maximal possible effect (% MPE) of testing compound was calculated according to the formula: (Log [compound-treated threshold]−Log [vehicle-treated threshold])/(Log [maximum threshold]−Log [vehicle-treated threshold])×100%, where the maximum threshold was equal to 15 g.
The animals were housed in Association for Assessment and Accreditation of Laboratory Animal Care (AAALAC) approved facilities at AbbVie Inc. in a temperature-regulated environment under a controlled 12-hour light-dark cycle, with lights on at 6:00 a.m. Food and water were available ad libitum at all times except during testing. All testing was done following procedures outlined in protocols approved by AbbVie Inc.s' Institutional Animal Care and Use Committee.

human Nav1.7 = human Nav1.7 (Homo sapiens (Human), UniProt Q15858); assay: FRET-based membrane potential assay, recombinant human sodium channel Nav1.7; format: cell-based; details: HEK293 cells stably expressing recombinant human Nav1.7; depolarization with veratridine (EC80) + scorpion venom
Procedure, shortened: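 IC50 derived by four-parameter Hill fit of percent inhibition of depolarization, measured as peak F440-480/F565-625 ratio over baseline. Stable human Nav1.7 HEK293 cells, dye-loaded with CC2-DMPE and DiSBAC2(3)/VABSC-1 at room temperature, received compound 3 min ahead of veratridine (EC80) plus scorpion venom.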

human Nav1.8 = human Nav1.8 (Homo sapiens (Human), UniProt Q9Y5Y9); assay: FRET-based membrane potential assay, recombinant human sodium channel Nav1.8; format: cell-based; details: HEK293 cells stably expressing recombinant human Nav1.8; depolarization with veratridine (EC80) + scorpion venom
Procedure, shortened: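 HEK293 cells stably expressing Nav1.8 were loaded with CC2-DMPE/DiSBAC2(3) FRET voltage dyes. Compounds were added 3 min before depolarization with EC80 veratridine plus scorpion venom. The F440-480/F565-625 ratio was read on FLIPR; IC50 came from four-parameter Hill fits.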

human Nav1.8, sequence (Q9Y5Y9 whole entry): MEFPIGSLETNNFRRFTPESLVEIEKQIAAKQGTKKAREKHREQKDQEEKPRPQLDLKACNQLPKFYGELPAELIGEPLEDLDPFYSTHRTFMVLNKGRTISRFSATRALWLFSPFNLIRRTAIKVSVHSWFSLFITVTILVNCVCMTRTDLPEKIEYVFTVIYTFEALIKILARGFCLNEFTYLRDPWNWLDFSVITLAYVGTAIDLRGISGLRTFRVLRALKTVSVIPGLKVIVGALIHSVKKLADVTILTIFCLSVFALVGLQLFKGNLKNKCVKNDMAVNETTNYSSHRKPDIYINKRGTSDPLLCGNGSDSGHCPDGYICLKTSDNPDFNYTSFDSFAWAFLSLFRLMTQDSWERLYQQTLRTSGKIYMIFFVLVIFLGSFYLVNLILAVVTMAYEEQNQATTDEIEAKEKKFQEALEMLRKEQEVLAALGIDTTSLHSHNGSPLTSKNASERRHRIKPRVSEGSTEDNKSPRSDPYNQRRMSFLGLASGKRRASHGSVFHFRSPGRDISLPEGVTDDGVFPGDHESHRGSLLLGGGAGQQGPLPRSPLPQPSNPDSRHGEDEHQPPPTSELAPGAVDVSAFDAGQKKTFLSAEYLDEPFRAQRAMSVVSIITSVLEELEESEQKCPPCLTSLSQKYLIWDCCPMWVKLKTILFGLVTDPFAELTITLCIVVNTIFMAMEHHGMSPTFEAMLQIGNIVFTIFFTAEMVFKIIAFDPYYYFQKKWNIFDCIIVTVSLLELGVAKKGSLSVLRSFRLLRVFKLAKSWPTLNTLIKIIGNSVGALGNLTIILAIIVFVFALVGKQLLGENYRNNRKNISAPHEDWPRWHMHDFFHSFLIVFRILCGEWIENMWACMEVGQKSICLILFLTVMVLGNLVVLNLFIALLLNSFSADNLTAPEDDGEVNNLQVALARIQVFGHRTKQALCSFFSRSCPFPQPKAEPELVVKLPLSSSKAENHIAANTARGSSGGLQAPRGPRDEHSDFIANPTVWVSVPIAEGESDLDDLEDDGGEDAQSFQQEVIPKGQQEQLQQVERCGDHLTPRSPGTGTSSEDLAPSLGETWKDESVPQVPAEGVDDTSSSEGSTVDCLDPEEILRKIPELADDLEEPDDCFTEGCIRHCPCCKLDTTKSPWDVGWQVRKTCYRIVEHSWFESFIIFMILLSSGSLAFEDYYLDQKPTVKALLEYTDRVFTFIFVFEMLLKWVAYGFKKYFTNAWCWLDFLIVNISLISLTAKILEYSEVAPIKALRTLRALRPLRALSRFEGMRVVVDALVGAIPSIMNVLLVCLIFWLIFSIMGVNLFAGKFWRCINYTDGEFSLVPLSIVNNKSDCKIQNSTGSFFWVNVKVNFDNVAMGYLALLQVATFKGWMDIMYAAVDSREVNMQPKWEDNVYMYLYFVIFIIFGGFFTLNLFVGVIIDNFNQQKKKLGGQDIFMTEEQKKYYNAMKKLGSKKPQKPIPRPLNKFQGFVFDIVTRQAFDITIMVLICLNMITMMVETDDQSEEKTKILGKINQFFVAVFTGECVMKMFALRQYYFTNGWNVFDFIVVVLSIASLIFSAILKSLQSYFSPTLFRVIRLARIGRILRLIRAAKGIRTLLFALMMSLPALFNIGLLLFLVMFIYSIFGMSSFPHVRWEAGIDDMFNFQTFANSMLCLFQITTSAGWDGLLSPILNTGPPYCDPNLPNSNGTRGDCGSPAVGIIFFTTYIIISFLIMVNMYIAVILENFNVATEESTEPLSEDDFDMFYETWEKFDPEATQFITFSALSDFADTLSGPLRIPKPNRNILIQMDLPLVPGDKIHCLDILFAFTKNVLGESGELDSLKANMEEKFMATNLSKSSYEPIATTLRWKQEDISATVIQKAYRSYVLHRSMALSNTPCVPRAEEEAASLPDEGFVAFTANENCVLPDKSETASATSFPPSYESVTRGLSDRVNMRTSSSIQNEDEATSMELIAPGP
human Nav1.7, sequence (Q15858 whole entry): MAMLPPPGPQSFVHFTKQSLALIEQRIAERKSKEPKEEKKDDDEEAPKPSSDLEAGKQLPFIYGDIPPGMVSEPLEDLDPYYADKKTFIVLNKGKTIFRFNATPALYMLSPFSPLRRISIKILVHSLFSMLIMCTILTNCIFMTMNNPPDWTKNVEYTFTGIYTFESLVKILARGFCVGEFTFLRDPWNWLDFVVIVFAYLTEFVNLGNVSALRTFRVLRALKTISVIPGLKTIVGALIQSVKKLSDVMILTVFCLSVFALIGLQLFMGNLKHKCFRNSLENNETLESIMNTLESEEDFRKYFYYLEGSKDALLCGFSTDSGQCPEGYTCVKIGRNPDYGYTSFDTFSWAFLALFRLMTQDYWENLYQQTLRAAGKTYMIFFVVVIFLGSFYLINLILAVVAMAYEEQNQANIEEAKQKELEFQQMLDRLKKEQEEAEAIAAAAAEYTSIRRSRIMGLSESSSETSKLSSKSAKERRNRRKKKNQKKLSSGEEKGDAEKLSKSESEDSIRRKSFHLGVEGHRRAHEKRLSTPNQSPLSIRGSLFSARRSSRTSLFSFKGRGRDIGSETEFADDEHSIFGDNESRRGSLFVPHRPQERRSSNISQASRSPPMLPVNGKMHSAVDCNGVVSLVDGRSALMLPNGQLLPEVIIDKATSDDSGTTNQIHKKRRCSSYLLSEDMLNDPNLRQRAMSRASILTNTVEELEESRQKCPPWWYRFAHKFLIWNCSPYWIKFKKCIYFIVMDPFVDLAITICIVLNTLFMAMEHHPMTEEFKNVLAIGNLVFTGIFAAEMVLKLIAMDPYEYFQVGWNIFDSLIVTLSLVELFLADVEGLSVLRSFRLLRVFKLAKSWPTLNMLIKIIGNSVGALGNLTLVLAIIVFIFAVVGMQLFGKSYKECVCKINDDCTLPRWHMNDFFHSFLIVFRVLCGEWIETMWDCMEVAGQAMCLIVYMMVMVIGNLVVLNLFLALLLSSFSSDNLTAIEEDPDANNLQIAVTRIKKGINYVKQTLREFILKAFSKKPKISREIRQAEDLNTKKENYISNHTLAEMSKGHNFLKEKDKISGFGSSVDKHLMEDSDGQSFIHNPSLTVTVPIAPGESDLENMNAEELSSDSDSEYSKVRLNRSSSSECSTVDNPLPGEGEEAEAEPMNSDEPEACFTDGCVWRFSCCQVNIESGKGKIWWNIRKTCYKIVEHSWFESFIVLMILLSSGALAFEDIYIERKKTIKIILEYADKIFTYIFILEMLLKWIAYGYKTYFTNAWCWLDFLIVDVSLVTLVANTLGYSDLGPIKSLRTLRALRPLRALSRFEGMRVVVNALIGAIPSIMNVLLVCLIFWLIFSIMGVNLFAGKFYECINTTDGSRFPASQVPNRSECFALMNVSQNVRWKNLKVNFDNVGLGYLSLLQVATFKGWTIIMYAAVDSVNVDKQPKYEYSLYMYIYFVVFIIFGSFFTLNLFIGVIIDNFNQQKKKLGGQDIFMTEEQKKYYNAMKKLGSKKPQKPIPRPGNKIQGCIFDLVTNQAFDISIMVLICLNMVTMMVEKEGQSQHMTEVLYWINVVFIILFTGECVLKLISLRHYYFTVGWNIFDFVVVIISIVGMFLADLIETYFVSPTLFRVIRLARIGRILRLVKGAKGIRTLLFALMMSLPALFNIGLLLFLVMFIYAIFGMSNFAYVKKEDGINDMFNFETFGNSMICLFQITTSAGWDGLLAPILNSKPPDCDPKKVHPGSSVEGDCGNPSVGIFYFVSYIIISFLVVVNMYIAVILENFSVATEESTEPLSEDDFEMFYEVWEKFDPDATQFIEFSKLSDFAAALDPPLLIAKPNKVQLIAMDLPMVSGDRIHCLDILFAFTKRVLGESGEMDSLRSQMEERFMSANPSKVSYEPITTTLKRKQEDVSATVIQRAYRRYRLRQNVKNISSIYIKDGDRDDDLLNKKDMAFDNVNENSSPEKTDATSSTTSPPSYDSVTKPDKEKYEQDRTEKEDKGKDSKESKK

Row | SMILES | OA MPE (%) ([1]; OA dose 30 mg/kg) | SNL MPE (%) [2] [%] | IC50 (human Nav1.7) [nM] | IC50 (human Nav1.8) [nM] | OA MPE (%) ([1]; OA dose 10 mg/kg)
1 | O=C(CN1CCN(c2cccc3c2cnn3-c2ccccc2F)C1=O)N1CCCC1 [Example 1, 1-[1-(2-fluorophenyl)-1H-indazol-4-yl]-3-[2-oxo-2-(pyrrolidin-1-yl)ethyl]imidazolidin-2-one] | 55 | 52 |  |  | 
2 | CC(C)(C)OC(=O)N1CCN(c2cccc3c2cnn3-c2ccccc2F)C1=O [Example 2, tert-butyl 3-[1-(2-fluorophenyl)-1H-indazol-4-yl]-2-oxoimidazolidine-1-carboxylate] |  | 38 |  |  | 
3 | NC(=O)CN1CCN(c2cccc3c2cnn3-c2ccccc2F)C1=O [Example 3, 2-{3-[1-(2-fluorophenyl)-1H-indazol-4-yl]-2-oxoimidazolidin-1-yl}acetamide] |  | 30 |  |  | 
4 | CC(C)OC(=O)N1CCN(c2cccc3c2cnn3-c2ccccc2F)C1=O [Example 4, isopropyl 3-[1-(2-fluorophenyl)-1H-indazol-4-yl]-2-oxoimidazolidine-1-carboxylate] |  | 68 | 223 | 230 | 
5 | CC(C)CC(=O)CN1CCN(c2cccc3c2cnn3-c2ccccc2F)C1=O [Example 8, 1-[1-(2-fluorophenyl)-1H-indazol-4-yl]-3-(4-methyl-2-oxopentyl)imidazolidin-2-one] | 75 | 57 |  |  | 
6 | O=C(CN1CCN(c2cccc3c2cnn3-c2ccccc2F)C1=O)N1CC[C@H](F)C1 [Example 10, 1-[1-(2-fluorophenyl)-1H-indazol-4-yl]-3-{2-[(3S)-3-fluoropyrrolidin-1-yl]-2-oxoethyl}imidazolidin-2-one] | 91 | 0 |  |  | 
7 | O=C1N(Cc2ccccn2)CCN1c1cccc2c1cnn2-c1ccccc1F [Example 12, 1-[1-(2-fluorophenyl)-1H-indazol-4-yl]-3-(pyridin-2-ylmethyl)imidazolidin-2-one] |  | 25 | 1020 | 321 | 
8 | O=C1N(Cc2cocn2)CCN1c1cccc2c1cnn2-c1ccccc1F [Example 26, 1-[1-(2-fluorophenyl)-1H-indazol-4-yl]-3-(1,3-oxazol-4-ylmethyl)imidazolidin-2-one] |  | 54 | 382 | 517 | 
9 | O=C1N(Cc2ncco2)CCN1c1cccc2c1cnn2-c1ccccc1F [Example 31, 1-[1-(2-fluorophenyl)-1H-indazol-4-yl]-3-(1,3-oxazol-2-ylmethyl)imidazolidin-2-one] |  | 94 |  |  | 89
10 | O=C(CN1CCN(c2cccc3c2cnn3-c2ccccc2F)C1=O)N1CCC[C@@H](F)C1 [Example 53, 1-[1-(2-fluorophenyl)-1H-indazol-4-yl]-3-{2-[(3R)-3-fluoropiperidin-1-yl]-2-oxoethyl}imidazolidin-2-one] | 74 | 47 |  |  | 
11 | O=C(CN1CCN(c2cccc3c2cnn3-c2ccccc2)C1=O)N1CC[C@H](F)C1 [Example 307, 1-{2-[(3S)-3-fluoropyrrolidin-1-yl]-2-oxoethyl}-3-(1-phenyl-1H-indazol-4-yl)imidazolidin-2-one] | 62 |  | 520 | 1420 | 
12 | O=C(CN1CCN(c2cccc3c2cnn3-c2ccccc2F)C1=O)NC1(CO)CCC1 [Example 316, 2-{3-[1-(2-fluorophenyl)-1H-indazol-4-yl]-2-oxoimidazolidin-1-yl}-N-[1-(hydroxymethyl)cyclobutyl]acetamide] | 63 |  | 3110 | 1650 | 
13 | CC1(NC(=O)CN2CCN(c3cccc4c3cnn4-c3ccccc3F)C2=O)CC1 [Example 333, 2-{3-[1-(2-fluorophenyl)-1H-indazol-4-yl]-2-oxoimidazolidin-1-yl}-N-(1-methylcyclopropyl)acetamide] | 86 |  | 2410 | 4760 | 
